1 substance from US9803021B2 (The Regents of the University of California, priority 2012, dated 2017) can be followed below.

“Also recorded” adds a separate entry of the source.

What all share (assay type): cell-based, human
The test system of experiment [1] is OCI-My5. Nature of the experiment: MTS assay (cell viability / metabolic activity). To be noted: OCI-My5, 3 days. Here is the method:
(§1) Percent cell viability was determined using MTS solution (Promega, Madison, Wis.) by measuring absorbance at 490 nm using a Synergy HT Multi-Detection Microplate Reader (BioTek Instruments, Inc., Winooski, Vt.) with untreated cells being 100%. GraphPad Prism (GraphPad Software Inc., La Jolla, Calif.) was used to analyze data by non-linear regression with the log (inhibitor) vs. the response with a variable slope with the IC50 calculated. Data are expressed as a percentage of maximum metabolic activity. The experiments were performed in triplicate.
Metabolic activity was determined using MTS solution (Promega) by measuring absorbance at 490 nm using a Synergy HT Multi-Detection Microplate Reader (BioTek Instruments Inc.) with untreated cells being 100%. GraphPad Prism (GraphPad Software Inc.) was used to analyze data by non-linear regression with the log (inhibitor) versus the response with a variable slope. Data are expressed as a percentage of maximum metabolic activity. The experiments were performed in triplicate.

Experiment [2] concerns NCI-H929. As to the kind of experiment: Ki-67 stain (flow cytometry). To be noted: NCI-H929, 500 pM, 3 days. Here is the method:
(§2) Senescence induced β-galactosidase (β-gal) activity was detected as described previously (Debacq-Chainiaux et al. (2009) Nat. Protoc., 4: 1798-1806) and in Supplemental methods. To detect Ki-67 protein, cells were stained and analyzed by flow cytometry as described in Supplemental methods.
(§3) After treatment, cells were fixed with methanol on ice and then incubated with anti-Ki-67 rabbit IgG (Abcam). Cells were then stained with anti-rabbit IgG-FITC (Sigma) and analyzed by flow cytometry.
(In flow cytometry, cells or beads pass a laser one at a time.)

Experiment [3] concerns MM1-144. As to the kind of experiment: Ki-67 stain (flow cytometry). To be noted: MM1-144, 500 pM, 3 days. Here is the method: as §2, §3
Experiment [4] has as its system U266. Nature of the experiment: Apoptosis assay (Annexin V / PI flow cytometry). How it is done: (§4) Cells were analyzed by flow cytometry using FlowJo software.
(§5) Cells were stained with Alexa Fluor 488-labeled Annexin V and propidium iodide (PI) using the Vybrant Apoptosis Kit #2 (Molecular Probes) as per manufacturer's instructions and analyzed by flow cytometry.

In experiment [5] the test system is OCI-My5. As to the kind of experiment: Apoptosis assay (Annexin V / PI flow cytometry). The note with it: 3 days; for induction of apoptosis, result in words: OCI-My5, 500 pM (also 1 nM). Here is the method:
as §4, §5

For experiment [6], the system named is NCI-H929. As to the kind of experiment: Apoptosis assay (Annexin V / PI flow cytometry). Here is the method: as §4, §5
For experiment [7], the system named is MM1-144. Nature of the experiment: Apoptosis assay (Annexin V / PI flow cytometry). How it is done:
as §4, §5

Experiment [8] deals with 8226/S. As to the kind of experiment: Apoptosis assay (Annexin V / PI flow cytometry). How it is done:
as §4, §5

Experiment [9] concerns ANBL-6. As to the kind of experiment: Apoptosis assay (Annexin V / PI flow cytometry). How it is done:
as §4, §5

Experiment [10] relates to primary myeloma cells from patients. Nature of the experiment: Treatment of primary myeloma cells from patients (trypan blue / MTT). How it is done:
Trypan blue and MTT assays were used to determine the number of viable cells. The percentage of viable recovered cells was calculated based upon the number of viable cells recovered from DMSO-treated control cells, which was arbitrarily designated as 100%.
Percent viable cell recovery was determined by trypan blue staining, with untreated control cells designated as 100%.

Experiment [11] concerns OPM-2. As to the kind of experiment: MTS assay (cell viability / metabolic activity). Here is the method:
as §1
To determine if the HMCLs were sensitive to treatment with IFNα fusion protein, HMCLs were incubated with varying concentrations of anti-CD138-IFNα, and cell viability was assessed. Anti-CD138-IFNα was used to target IFNα to the MM cell lines while anti-CD20-IFNα was used as an untargeted control. […] The MM cell lines differed in their response to treatment with the fusion proteins.
A general note: Tetrazolium dyes change colour on reduction, which living cells bring about.

In the case of “anti-CD138-IFNα: Fusion protein: murine B-B4 anti-CD138 variable regions, human IgG1κ constant regions, human IFNα2 fused to the antibody C-terminus via SGGGGS linker”, the “cell viability / growth inhibition (MTS assay), result in words” value was “more effective than untargeted anti-CD20-IFNα; also recorded: more effective at decreasing cell viability than IFNα alone” in [1] and “more effective than recombinant IFNα2” in experiment [1] (listed as Anti-CD138-IFNα2). Moreover, the “Ki-67 negative (non-dividing) cells, result in words” value in experiment [2] and in [3] was “more Ki-6T cells as compared to untreated control” throughout. In addition, the “Mode of Action of anti-CD138-IFNα fusion” value in [4] (U266), in [6] (H929), in [7] (MM144), in experiment [8] and in experiment [9] (ANBL-6) was “Apoptosis” in each case. Also, the “induction of apoptosis at low concentration, result in words” value in experiment [4] (U266, 1 pM, 3 days) is on record as “able to induce apoptosis”; in [5] (OCI-My5, 5 pM) it was “able to induce apoptosis”; in [6] (NCI-H929, 1 pM, 3 days) it was “did not cause apoptosis”; in experiment [7] (MM1-144, 1 pM, 3 days) it was “did not cause apoptosis”; in experiment [9] (ANBL-6, 1 pM, 3 days), “did not cause apoptosis”. In addition, the “induction of apoptosis, result in words” value was “caused apoptosis” in experiment [4] (U266, 500 pM, 3 days, listed as anti-CD138-IFNα2); “did not induce apoptosis; also recorded: did not cause apoptosis or blocks to cell cycle progression” in experiment [5]; “caused apoptosis” in [5] (listed as anti-CD138-IFNα2); “caused apoptosis” in experiment [6] (H929 (NCI-H929), 500 pM, 3 days, listed as anti-CD138-IFNα2); “caused apoptosis” in experiment [7] (MM144 (MM1-144), 500 pM, 3 days); “caused apoptosis” in experiment [9] (ANBL-6, 500 pM, 3 days, listed as anti-CD138-IFNα2). Besides, the “viability of primary myeloma cells, result in words” value in experiment [10] (25 nM, 72 h) is recorded as “little effect”; in experiment [10] (100 nM, 72 hours) it was “significantly reduce cell viability”. Moreover, the “cell viability (MTS assay), result in words” value in experiment [11] (OPM-2, 3 days) is “little or no effect”; in [11] (OPM-2, treatment increased to 4 days (data not shown)) it was “decrease in viability”.
